Assay results published in patent publication US20130053365A1, “DIHYDROPYRIDOPHTHALAZINONE INHIBITORS OF POLY(ADP-RIBOSE)POLYMERASE (PARP)” (BioMarin Pharmaceutical, Inc., priority 2011, published 2013).
Values joined by “and” are separate entries in the source; they are usually repeats but may differ in a detail not shown here. Identical values can stand only once. Blank lines part the entries; values can stand above or below the compound they belong to.

Assays:
[1] = target: T1, PARP-1 (Homo sapiens, UniProt P09874); experiment: Universal Chemiluminescent PARP Assay (Trevigen kit), inhibition of human PARP 1 enzyme; assay type: biochemical; design: purchased Trevigen 4676-096-K; conditions: recombinant human PARP 1 enzyme, read-out: PARP-inhibitory activity
Description: Inhibitory effects of test compounds against human PARP 1 enzyme are assessed using Trevigen's Universal Chemiluminescent PARP Assay Kit (Trevigen CAT #4676-096-K) following the manufacturer's recommended protocol.
Immediately prior to performing the assay, the following reagents are prepared: A) 20× PARP Assay Buffer is diluted to 1× with dH2O; B) 10× PARP Cocktail, which contains a mixture of NAD and biotinylated NAD, is diluted by the addition of 10× Activated DNA and 1× PARP Assay Buffer. Both the PARP Cocktail and Activated DNA are 1× after the dilution; C) all test compounds are initially dissolved in DMSO, and subsequently serial diluted with 1× PARP Assay Buffer; D) recombinant human PARP 1 enzyme is diluted with 1× PARP Assay Buffer to generate 0.5 unit/15 μL; E) 10× Strep-Diluent is diluted to 1× with 1× PBS/0.1% Triton X-100; F) Just before use, Strep-HRP is diluted 500-fold with 1× Strep-Diluent.
The chemiluminescent assays for PARP activity is performed in white 96-well plates that are pre-coated with histones. […]
The reactions are allowed to proceed for 1 hour at room temperature. […] The light output is immediately determined in a plate reader (EnVision, by Perkin Elmer) set up for measuring chemiluminescence.
The % enzyme activity for each compound is then calculated using the following equation: […]
Target sequence in this assay (P09874 whole entry): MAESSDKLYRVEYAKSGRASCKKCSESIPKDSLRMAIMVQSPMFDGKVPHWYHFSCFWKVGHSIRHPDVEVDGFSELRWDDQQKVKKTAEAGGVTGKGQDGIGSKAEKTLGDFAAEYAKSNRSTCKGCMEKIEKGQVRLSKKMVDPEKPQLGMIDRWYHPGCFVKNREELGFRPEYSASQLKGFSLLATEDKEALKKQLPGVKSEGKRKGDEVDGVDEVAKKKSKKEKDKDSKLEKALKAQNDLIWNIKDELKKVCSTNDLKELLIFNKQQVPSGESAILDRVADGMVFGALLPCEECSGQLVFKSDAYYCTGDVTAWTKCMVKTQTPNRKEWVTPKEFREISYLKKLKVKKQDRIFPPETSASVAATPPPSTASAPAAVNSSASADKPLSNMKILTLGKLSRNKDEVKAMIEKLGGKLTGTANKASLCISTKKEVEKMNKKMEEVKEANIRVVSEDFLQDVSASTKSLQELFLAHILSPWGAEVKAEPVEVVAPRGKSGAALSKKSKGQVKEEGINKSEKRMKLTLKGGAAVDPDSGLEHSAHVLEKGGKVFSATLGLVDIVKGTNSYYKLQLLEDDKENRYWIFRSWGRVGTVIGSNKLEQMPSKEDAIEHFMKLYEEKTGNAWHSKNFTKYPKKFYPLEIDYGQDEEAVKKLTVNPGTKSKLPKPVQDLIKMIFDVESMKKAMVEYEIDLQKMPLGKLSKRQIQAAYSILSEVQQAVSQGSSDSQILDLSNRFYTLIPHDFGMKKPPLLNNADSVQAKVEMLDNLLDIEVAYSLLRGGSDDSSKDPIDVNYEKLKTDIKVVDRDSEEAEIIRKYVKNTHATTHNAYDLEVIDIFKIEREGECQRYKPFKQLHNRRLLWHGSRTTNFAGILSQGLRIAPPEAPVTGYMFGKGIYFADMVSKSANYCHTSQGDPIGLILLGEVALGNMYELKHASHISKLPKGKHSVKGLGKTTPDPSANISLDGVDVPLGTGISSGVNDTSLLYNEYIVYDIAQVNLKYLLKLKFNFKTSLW

[2] = test system: BRCA2-deficient cell line V-C8; conditions: BRCA2-deficient V-C8 compared with BRCA2 wild type control; cited from earlier work
[3] = target: T1, PARP-1; conditions: literature value, Farmer et al., Nature 2005; read-out: Ki (PARP-1 inhibitor); cited from earlier work
Target sequence in this assay (P09874 whole entry, species assumed): as the sequence (P09874 whole entry) above

[4] = test system: CAPAN-1 cells; conditions: CAPAN-1 cells in DMEM with FCS (20% v/v), glutamine and antibiotics; cited from earlier work

- IC50 [1]: < 800 nM and 250 to 300 nM
SMILES: Cn1ncnc1C1c2n[nH]c(=O)c3cc(F)cc(c23)NCC1c1ccc(F)cc1 (stereo not drawn) [Compound 40, 5-fluoro-9-(4-fluorophenyl)-10-(1-methyl-1H-1,2,4-triazol-5-yl)-7,8,9,10-tetrahydroazepino[4,3,2-de]phthalazin-3(2H)-one]

SMILES: Cc1nc2c(O)cccc2c(=O)[nH]1 [NU1025]
- sensitivity in clonogenic survival assay [2]: exhibited sensitivity
- Ki [3]: 50 nM

SMILES: CN(C)Cc1ccc(-c2nc3cccc4c3n2CCNC4=O)cc1 [AG14361]
- sensitivity in clonogenic survival assay [2]: exhibited sensitivity
- Ki [3]: 5 nM

SMILES: O=C(c1cc(Cc2n[nH]c(=O)c3ccccc23)ccc1F)N1CCN(C(=O)C2CC2)CC1 [AZD2281]
- sensitivity to PARP inhibition in clonogenic survival assay [4]: showing sensitivity to PARP inhibition
